Assay results: US10041115B2, “3′-OH unblocked, fast photocleavable terminating nucleotides and methods for nucleic acid sequencing” (LASERGEN, INC., priority 2011, dated 2018)

Assay: Photochemical cleavage assays of incorporated nucleotide analogs (365 nm UV light, DT50)
Type: physicochemical
Details: for DT50 in 1 mM NaN3, 50 mM DTT / DT50 in 1 mM NaN3, No DTT: 365 nm UV, 0.70 W/cm^2; for DT50 values: UV photochemical cleavage experiments; for faster photochemical cleavage rates of ds2 isomers compared with their ds1 counterparts, factor: ds2 vs ds1 isomer of the same analog; for DT50 value of ds1 isomer compared with the parent dA.I analog: ds1 isomers of the α-isopropyl C^7-HOMedA set
Method: As used herein, the term “DT50” refers to the amount of time required to cleavage 50% of the base analog incorporated in the primer-template complex.
To compare the rates of photochemical cleavage between the nucleotide analogs described here, a protocol was developed to deliver a daily light intensity output of 0.70±0.01 W/cm^2 to samples, see below.
The power supply was turned on for about 30 min prior to that of the lamp and recirculation bath as described by the manufacturer. The IR liquid filter was cooled to 9° C. Light intensity was determined using a model PM100 power meter (Thorlabs), a 1000 μm pinhole (Edmund Optics), a modified 0.5 mL Eppendorf tube cut in half, and a 3-axis manual translation stage (Newport), see FIG. 5. The half cut Eppendorf tube was positioned in front of the pinhole and power meter detector head to account for the geometric shape distortion of the light as it passes through a reaction solution. The translation stage was then used to align the tube/pinhole/detector device with the highest intensity from the arc beam.
To stabilize its output, the lamp was left on for one hour prior to intensity measurements. Thereafter, the measured power was adjusted by increasing the current from the power supply. In order to achieve intensity (I) of 0.70 W/cm^2, the measured power (P) was adjusted to ˜5.5 mW, according to the equation:
[formula] where r is the radius of pinhole.
The beam was then focused by placing an 0.5 mL Eppendorf tube into the sample holder, the tube of which was modified with an internal alignment card to provide reference lines for volume heights of 10 μL and 20 μL, see FIG. 5. The reference lines enabled the beam to be centered for a given reaction volume. Beam alignment was further verified by observing the mercury arc image of the lamp produced by the rear reflector. A second alignment card was placed into the rotating sample holder to view the image, which when properly aligned using the reflector would produce an inverted arc image on the arc gap itself. This step ensured that arc hotspots were not superimposed, which could cause overheating while maintaining a power output of ˜5.5 mW. The speed of the rotating sample holder was adjusted within a range of 1,200-1,350 rpm using a Nova-Strobe DA Plus stroboscope (Monarch Instrument) by adjusting the motor's torque with an adjustment screw.
Photochemical cleavage assays: Nucleotide analogs were incorporated using 10 μL reactions, as described for the PEP assays, at a final concentration of 100 nM. […] OligoTemplate-2, oligoTemplate-5, and oligoTemplate-4 each hybridized with BODIPY-FL labeled primer-1 were used for C^7-HOMedA, C^7-HOMedG, and HOMedU analogs, respectively. OligoTemplate-8 hybridized with BODIPY-FL labeled primer-3 was used to assay HOMedC analogs. Incorporated reactions were quenched with either 1 mM sodium azide solution; 1 mM sodium azide, 50 mM DTT solution; or reagents C-G (see key in FIG. 4), exposed to 365 nm ultraviolet (UV) light for various time points using our UV deprotector, and then placed on ice.

[1] = Table 2, C^7-HOMedG analogs, average ± 1SD, triplicate
[2] = Table 1, C^7-HOMedA analogs, average ± 1SD, triplicate
[3] = Table 3, reversible terminators
[4] = Table 3, reversible terminators, [a] transient product considered as cleaved product

SMILES	DT50 in 1 mM NaN3, 50 mM DTT [1]	DT50 in 1 mM NaN3, No DTT [1]	DT50 in 1 mM NaN3, 50 mM DTT [2]	DT50 in 1 mM NaN3, No DTT [2]	DT50 in 1 mM NaN3, 50 mM DTT [3]	DT50 in 1 mM NaN3, No DTT [4]	other results
COc1cc(C(OCc2cn([C@H]3C[C@H](O)[C@@H](COP(=O)(O)OP(=O)(O)OP(=O)(O)O)O3)c3nc(N)[nH]c(=O)c23)C(C)(C)C)c([N+](=O)[O-])cc1OC (single isomer, unassigned) [dG.V.d ds2, 7-[1-(4,5-dimethoxy-2-nitrophenyl)-2,2-dimethyl-propyloxy]methyl-7-deaza-2′-deoxyguanosine-5′-triphosphate]	0.8 ± 0.1 s	0.8 ± 0.1 s	–	–	–	–	DT50 values: 0.8 s; faster photochemical cleavage rates of ds2 isomers compared with their ds1 counterparts, factor: 3.0 ×
COc1ccc(C(OCc2cn([C@H]3C[C@H](O)[C@@H](COP(=O)(O)OP(=O)(O)OP(=O)(O)O)O3)c3ncnc(N)c23)C(C)C)c([N+](=O)[O-])c1 (single isomer, unassigned) [dA.III.b ds2, 7-[1-(4-methoxy-2-nitrophenyl)-2-methyl-propyloxy]methyl-7-deaza-2′-deoxyadenosine-5′-triphosphate]	–	–	1.0 ± 0.1 s	1.1 ± 0.1 s	–	–	faster photochemical cleavage rates of ds2 isomers compared with their ds1 counterparts, factor: 6.4 ×
COc1ccc(C(OCc2cn([C@H]3C[C@H](O)[C@@H](COP(=O)(O)OP(=O)(O)OP(=O)(O)O)O3)c3nc(N)[nH]c(=O)c23)C(C)(C)C)c([N+](=O)[O-])c1 (single isomer, unassigned) [dG.V.b ds1, 7-[1-(4-methoxy-2-nitrophenyl)-2,2-dimethyl-propyloxy]methyl-7-deaza-2′-deoxyguanosine-5′-triphosphate]	4.6 ± 0.3 s	4.9 ± 0.3 s	–	–	–	–	–
Nc1nc2c(c(COCc3ccccc3[N+](=O)[O-])cn2[C@H]2C[C@H](O)[C@@H](COP(=O)(O)OP(=O)(O)OP(=O)(O)O)O2)c(=O)[nH]1 [dG.I, 7-(2-nitrobenzyloxy)methyl-7-deaza-2′-deoxyguanosine-5′-triphosphate]	8.1 ± 0.2 s	9.2 ± 0.3 s	–	–	8.1 ± 0.2 s	9.2 ± 0.3 s	DT50 values: 9.2 s
Nc1nc(=O)n([C@H]2C[C@H](O)[C@@H](COP(=O)(O)OP(=O)(O)OP(=O)(O)O)O2)cc1COCc1ccccc1[N+](=O)[O-] [dC.I, 5-(2-nitrobenzyloxy)methyl-2′-deoxycytidine-5′-triphosphate]	–	–	–	–	1.6 ± 0.2 s	2.0 ± 0.3 s	DT50 values: 2.0 s
COc1ccc([N+](=O)[O-])c([C@@H](OCc2cn([C@H]3C[C@H](O)[C@@H](COP(=O)(O)OP(=O)(O)OP(=O)(O)O)O3)c3nc(N)[nH]c(=O)c23)C(C)(C)C)c1 [dG.VI, 7-[(S)-1-(5-methoxy-2-nitrophenyl)-2,2-dimethyl-propyloxy]methyl-7-deaza-2′-deoxyguanosine-5′-triphosphate]	–	–	–	–	0.8 ± 0.1 s	0.8 ± 0.1 s	–
CC(C)C(OCc1cn([C@H]2C[C@H](O)[C@@H](COP(=O)(O)OP(=O)(O)OP(=O)(O)O)O2)c2ncnc(N)c12)c1c([N+](=O)[O-])cccc1[N+](=O)[O-] (single isomer, unassigned) [dA.III.c ds2, 7-[1-(2,6-dinitrophenyl)-2-methyl-propyloxy]methyl-7-deaza-2′-deoxyadenosine-5′-triphosphate]	–	–	2.5 ± 0.1 s	2.8 ± 0.2 s	–	–	faster photochemical cleavage rates of ds2 isomers compared with their ds1 counterparts, factor: 1.2 ×
CC(C)(C)C(OCc1cn([C@H]2C[C@H](O)[C@@H](COP(=O)(O)OP(=O)(O)OP(=O)(O)O)O2)c2nc(N)[nH]c(=O)c12)c1ccccc1[N+](=O)[O-] (stereo partly drawn) [dG.V.a ds1, 7-[1-(2-nitrophenyl)-2,2-dimethyl-propyloxy]methyl-7-deaza-2′-deoxyguanosine-5′-triphosphate]	10.7 ± 0.2 s	11.0 ± 0.4 s	–	–	–	–	–
CC(C)(C)[C@H](OCc1cn([C@H]2C[C@H](O)[C@@H](COP(=O)(O)OP(=O)(O)OP(=O)(O)O)O2)c2nc(N)[nH]c(=O)c12)c1ccccc1[N+](=O)[O-] [dG.V, 7-[(S)-1-(2-nitrophenyl)-2,2-dimethyl-propyloxy]methyl-7-deaza-2′-deoxyguanosine-5′-triphosphate]	–	–	–	–	2.9 ± 0.2 s	3.0 ± 0.1 s	–
CC(C)(C)[C@H](OCc1cn([C@H]2C[C@H](O)[C@@H](COP(=O)(O)OP(=O)(O)OP(=O)(O)O)O2)c2ncnc(N)c12)c1ccccc1[N+](=O)[O-] [dA.V, 7-[(S)-1-(2-nitrophenyl)-2,2-dimethyl-propyloxy]methyl-7-deaza-2′-deoxyadenosine-5′-triphosphate]	–	–	–	–	2.0 ± 0.2 s	2.1 ± 0.1 s	–
COc1ccc([N+](=O)[O-])c([C@@H](OCc2cn([C@H]3C[C@H](O)[C@@H](COP(=O)(O)OP(=O)(O)OP(=O)(O)O)O3)c(=O)nc2N)C(C)(C)C)c1 [dC.VI, 5-[(S)-1-(5-methoxy-2-nitrophenyl)-2,2-dimethyl-propyloxy]methyl-2′-deoxycytidine-5′-triphosphate]	–	–	–	–	0.6 ± 0.1 s	0.6 ± 0.1^[a] sec	–
COc1ccc([N+](=O)[O-])c(C(OCc2cn([C@H]3C[C@H](O)[C@@H](COP(=O)(O)OP(=O)(O)OP(=O)(O)O)O3)c3nc(N)[nH]c(=O)c23)C(C)(C)C)c1 (stereo partly drawn) [dG.V.c ds1, 7-[1-(5-methoxy-2-nitrophenyl)-2,2-dimethyl-propyloxy]methyl-7-deaza-2′-deoxyguanosine-5′-triphosphate]	3.0 ± 0.1 s	3.5 ± 0.3 s	–	–	–	–	rate increases, dG.V.c compared with dG.V.a (same isomer (ds1 or ds2) of dG.V.c vs dG.V.a): 3.6 ×; faster photochemical cleavage rates compared with the corresponding 4-OMe isomers (α-tert-butyl C^7-HOMedG analogs, 5-OMe vs 4-OMe): 1.4 × fold
COc1ccc(C(OCc2cn([C@H]3C[C@H](O)[C@@H](COP(=O)(O)OP(=O)(O)OP(=O)(O)O)O3)c3ncnc(N)c23)C(C)C)c([N+](=O)[O-])c1 (single isomer, unassigned) [dA.III.b ds1, 7-[1-(4-methoxy-2-nitrophenyl)-2-methyl-propyloxy]methyl-7-deaza-2′-deoxyadenosine-5′-triphosphate]	–	–	6.1 ± 0.4 s	7.0 ± 0.3 s	–	–	DT50 value of ds1 isomer compared with the parent dA.I analog: higher
CC(C)(C)[C@H](OCc1cn([C@H]2C[C@H](O)[C@@H](COP(=O)(O)OP(=O)(O)OP(=O)(O)O)O2)c(=O)nc1N)c1ccccc1[N+](=O)[O-] [dC.V, 5-[(S)-1-(2-nitrophenyl)-2,2-dimethyl-propyloxy]methyl-2′-deoxycytidine-5′-triphosphate]	–	–	–	–	1.0 ± 0.2 s	1.2 ± 0.1 s	–
CC(C)C(OCc1cn([C@H]2C[C@H](O)[C@@H](COP(=O)(O)OP(=O)(O)OP(=O)(O)O)O2)c2ncnc(N)c12)c1c([N+](=O)[O-])cccc1[N+](=O)[O-] (single isomer, unassigned) [dA.III.c ds1, 7-[1-(2,6-dinitrophenyl)-2-methyl-propyloxy]methyl-7-deaza-2′-deoxyadenosine-5′-triphosphate]	–	–	3.0 ± 0.2 s	3.4 ± 0.2 s	–	–	DT50 value of ds1 isomer compared with the parent dA.I analog: similar
CC(C)C(OCc1cn([C@H]2C[C@H](O)[C@@H](COP(=O)(O)OP(=O)(O)OP(=O)(O)O)O2)c2ncnc(N)c12)c1ccccc1[N+](=O)[O-] (single isomer, unassigned) [dA.III.a ds2, 7-[1-(2-nitrophenyl)-2-methyl-propyloxy]methyl-7-deaza-2′-deoxyadenosine-5′-triphosphate]	–	–	2.1 ± 0.1 s	2.2 ± 0.1 s	–	–	faster photochemical cleavage rates of ds2 isomers compared with their ds1 counterparts, factor: 2.0 ×
